According to ChEMBL document CHEMBL1148751, “Optimization of the indenone ring of indenoisoquinoline topoisomerase I inhibitors” (2007):

What was measured:
Format in all cases: functional
[1] = tested on: MDA-MB-435; assay: Cytotoxicity against human MDA-MB-435 cells
[2] = tested on: OVCAR-3; assay: Cytotoxicity against human OVCAR-3 cells
[3] = tested on: SF-539; assay: Cytotoxicity against human SF539 cells
[4] = tested on: SN12C; assay: Cytotoxicity against human SN12C cells
[5] = tested on: UACC-62; assay: Cytotoxicity against human UACC62 cells
[6] = tested on: HCT-116; assay: Cytotoxicity against human HCT116 cells
[7] = tested on: DU-145; assay: Cytotoxicity against human DU145 cells
[8] = tested on: HOP-62; assay: Cytotoxicity against human HOP62 cells

SMILES | GI50 [1] | GI50 [2] | GI50 [3] | GI50 [4] | GI50 [5] | GI50 [6] | GI50 [7] | GI50 [8]
CCOc1ccc2c(c1)C(=O)c1c-2n(CCCN=[N+]=[N-])c(=O)c2cc([N+](=O)[O-])ccc12 | 39.8 µM | 20 µM | 3.89 µM | 5.25 µM | 2.88 µM | 1.82 µM | 3.89 µM | 3.02 µM
COc1ccc2c(c1)C(=O)c1c-2n(CCCN=[N+]=[N-])c(=O)c2cc(OC)c(OC)cc12 | > 100 µM | 49 µM | 56.2 µM | 64.6 µM | 20.9 µM | 27.5 µM | 26.3 µM | 11.5 µM
NCCCn1c2c(c3ccc([N+](=O)[O-])cc3c1=O)C(=O)c1cc(I)ccc1-2 | 0.224 µM | 1.2 µM | 0.044 µM | < 0.01 µM | < 0.01 µM | < 0.01 µM | < 0.01 µM | 0.021 µM
COc1cc2c3c(n(CCCN=[N+]=[N-])c(=O)c2cc1OC)-c1ccc(C#N)cc1C3=O | > 100 µM | 17 µM | 17.4 µM | 15.5 µM | 12.3 µM | 24 µM | 33.9 µM | 14.1 µM
COc1ccc2c(c1)C(=O)c1c-2n(CCCN)c(=O)c2cc(OC)c(OC)cc12 | 1.7 µM | 0.389 µM | 0.115 µM | 0.141 µM | 0.427 µM | 0.054 µM | < 0.01 µM | < 0.01 µM
[N-]=[N+]=NCCCn1c2c(c3ccc([N+](=O)[O-])cc3c1=O)C(=O)c1cc(F)ccc1-2 | 2.88 µM | 3.47 µM | 0.457 µM | 0.302 µM | 0.38 µM | 0.309 µM | 0.437 µM | 0.251 µM
COc1cc2c3c(n(CCCN=[N+]=[N-])c(=O)c2cc1OC)-c1ccc(NC(C)=O)cc1C3=O | 50.1 µM | 50.1 µM | 50.1 µM | 50.1 µM | 50.1 µM | 50.1 µM | 50.1 µM | 50.1 µM
N#Cc1ccc2c(c1)C(=O)c1c-2n(CCCN=[N+]=[N-])c(=O)c2cc([N+](=O)[O-])ccc12 | > 50.1 µM | > 50.1 µM | > 50.1 µM | 46.8 µM | 3.63 µM | 3.89 µM | 7.08 µM | 15.1 µM
COC(=O)c1ccc2c(c1)C(=O)c1c-2n(CCCN=[N+]=[N-])c(=O)c2cc(OC)c(OC)cc12 | > 100 µM | > 100 µM | > 100 µM | > 100 µM | > 100 µM | > 100 µM | > 100 µM | > 100 µM
Cc1ccc2c(c1)C(=O)c1c-2n(CCCBr)c(=O)c2cc([N+](=O)[O-])ccc12 | > 100 µM | 70.8 µM | > 100 µM | 46.8 µM | 26.3 µM | 18.6 µM | 50.1 µM | 24.5 µM
CS(=O)(=O)c1ccc2c(c1)C(=O)c1c-2n(CCCBr)c(=O)c2cc([N+](=O)[O-])ccc12 | 83.2 µM | 28.8 µM | 24 µM | 6.92 µM | 4.27 µM | 7.41 µM | 6.31 µM | 8.13 µM
COc1ccc2c(c1)C(=O)c1c-2n(CCCCl)c(=O)c2cc([N+](=O)[O-])ccc12 | 3.24 µM | 3.39 µM | 0.027 µM | < 0.01 µM | < 0.01 µM | 0.794 µM | 0.036 µM | 0.295 µM
CSc1ccc2c(c1)C(=O)c1c-2n(CCCBr)c(=O)c2cc([N+](=O)[O-])ccc12 | 30.9 µM | > 100 µM | 4.57 µM | 0.891 µM | 3.09 µM | 2.24 µM | 3.89 µM | 1.05 µM
